Data on 15 compounds can be found in PubChem BioAssay (NCI).

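Five concentrations, 48 hours, 96-well plates. GI50 = concentration required for 50% inhibition of growth. TGI marks complete inhibition of growth.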

Some test systems named below: EKVX NSCLC; HCT-116 colon; MALME-3M melanoma; MDA-MB-231 breast; MOLT-4 leukemia; NCI-H23 lung; OVCAR-3 ovarian; SF-295 CNS; SNB-75 CNS; HL-60(TB) leukemia.
Common to all, as to test: inhibition of tumour cell growth, NCI panel, 48 h

For `c1cc(CNCCN2CCNCC2)ccn1`, the TGI in the experiment with EKVX NSCLC, in the experiment on HCT-116 colon, in the experiment with MALME-3M melanoma, with MDA-MB-231 breast, in the experiment with MOLT-4 leukemia and with NCI-H23 lung was greater than 100 µM each time. Further, the TGI in the experiment with OVCAR-3 ovarian, with SF-295 CNS and in the experiment with SNB-75 CNS was greater than 100 µM each time.

With `COc1cc(/C=C/C(=O)c2ccc(NC(=O)CN3CCN(c4cc5c(cc4F)c(=O)c(C(=O)O)cn5C4CC4)CC3)cc2)cc(OC)c1OC`, the GI50 was 0.324 µM in the experiment on HCT-116 colon; 1.75 µM in the experiment on HL-60(TB) leukemia; 2.32 µM in the experiment on MALME-3M melanoma; 0.712 µM in the experiment with MDA-MB-231 breast; 1.27 µM with MOLT-4 leukemia; 0.971 µM with NCI-H23 lung. Further, the GI50 in the experiment with OVCAR-3 ovarian is 0.364 µM; in the experiment with SF-295 CNS, 0.98 µM; with SNB-75 CNS, 2.41 µM. Moreover, the TGI was 1.31 µM with HCT-116 colon; greater than 29.8 µM in the experiment with HL-60(TB) leukemia; 14.5 µM in the experiment with MALME-3M melanoma; 6.36 µM with MDA-MB-231 breast; greater than 100 µM with MOLT-4 leukemia; 4.89 µM in the experiment with NCI-H23 lung. The TGI was 1.37 µM in the experiment on OVCAR-3 ovarian, 3.69 µM in the experiment on SF-295 CNS and greater than 23.9 µM in the experiment with SNB-75 CNS.

As for `O=[N+]([O-])c1c(Br)sc(Br)c1[N+](=O)[O-]`, the GI50 with EKVX NSCLC is 9.3 µM; in the experiment on HL-60(TB) leukemia, 2.4 µM; with MDA-MB-231 breast it was 2.32 µM; in the experiment on MOLT-4 leukemia, 1.01 µM; with NCI-H23 lung, 11.3 µM; with OVCAR-3 ovarian, 1.71 µM. For the same compound, the GI50 was 14.2 µM in the experiment on SF-295 CNS and 1.88 µM in the experiment with SNB-75 CNS. Also, the TGI with EKVX NSCLC was determined as 23.8 µM; in the experiment with HL-60(TB) leukemia, 6.65 µM; in the experiment on MDA-MB-231 breast, 6.19 µM; in the experiment with MOLT-4 leukemia it was 5.35 µM; with NCI-H23 lung, 28.9 µM; in the experiment with OVCAR-3 ovarian it was 3.2 µM. Further, the TGI with SF-295 CNS turned out to be 28.6 µM; in the experiment with SNB-75 CNS, 4.99 µM.

Turning to `COc1ccc(Cn2cc3c(c2-c2ccc(OC)cc2)CCc2cnoc2-3)cc1`, the GI50 in the experiment with EKVX NSCLC is 0.523 µM; in the experiment on HCT-116 colon, 0.451 µM; with HL-60(TB) leukemia, 0.282 µM; in the experiment with MDA-MB-231 breast, 1.41 µM; in the experiment on MOLT-4 leukemia, 0.504 µM; in the experiment with NCI-H23 lung it was 0.519 µM. The values for the GI50 with OVCAR-3 ovarian, with SF-295 CNS and in the experiment with SNB-75 CNS were 0.259 µM, 0.27 µM and 0.216 µM, respectively. The TGI was greater than 100 µM in the experiment on EKVX NSCLC; greater than 100 µM in the experiment on HCT-116 colon; 1.17 µM with HL-60(TB) leukemia; greater than 53.7 µM with MDA-MB-231 breast; greater than 35 µM in the experiment on MOLT-4 leukemia; greater than 100 µM in the experiment with NCI-H23 lung. The figures for the TGI in the experiment with OVCAR-3 ovarian, with SF-295 CNS and in the experiment on SNB-75 CNS were 0.62 µM, 0.96 µM and 0.804 µM, respectively.

For the compound `CN(C)c1ccc(Nc2cc(-c3cccc(OC(F)(F)F)c3)nc3ccc(N4CCCC4)cc23)cc1`, the GI50 was 2.16 µM in the experiment on EKVX NSCLC; 1.66 µM in the experiment with MALME-3M melanoma; 1.76 µM with MDA-MB-231 breast; 2.06 µM with NCI-H23 lung; 1.74 µM with OVCAR-3 ovarian; 1.83 µM with SF-295 CNS. Moreover, the GI50 in the experiment with SNB-75 CNS was 1.64 µM. Besides, the TGI with EKVX NSCLC was determined as 6.05 µM; in the experiment on MALME-3M melanoma, 3.11 µM; with MDA-MB-231 breast, 3.23 µM; with NCI-H23 lung, 4.39 µM; with OVCAR-3 ovarian it was 3.14 µM; in the experiment on SF-295 CNS, 3.57 µM. In the experiment on SNB-75 CNS, this compound showed a TGI of 3.12 µM.

As to `CN1c2ccccc2C(C)(C)C12C=Cc1cc(O)ccc1O2` (stereo not given), the GI50 is 3.66 µM in the experiment with EKVX NSCLC; 2.8 µM in the experiment on HCT-116 colon; 1.89 µM in the experiment on HL-60(TB) leukemia; 3.93 µM in the experiment on MDA-MB-231 breast; 4.5 µM in the experiment on MOLT-4 leukemia; 2.97 µM in the experiment with NCI-H23 lung. For the same compound, the figures for the GI50 in the experiment with OVCAR-3 ovarian, with SF-295 CNS and with SNB-75 CNS were 2.16 µM, 2.71 µM and 2.47 µM, respectively. The TGI was 14.5 µM with EKVX NSCLC; 11.8 µM in the experiment with HCT-116 colon; 11.8 µM with HL-60(TB) leukemia; 16.3 µM with MDA-MB-231 breast; greater than 100 µM with MOLT-4 leukemia; 13.8 µM with NCI-H23 lung. The TGI came to 5.23 µM in the experiment on OVCAR-3 ovarian, 12.8 µM in the experiment on SF-295 CNS and 8.4 µM in the experiment with SNB-75 CNS.

On to `N#CSCC1CC(O)(c2ccccc2)CC(c2ccc(F)cc2)O1` (stereo not given), for which the GI50 was 1.94 µM in the experiment on EKVX NSCLC; 1.63 µM in the experiment on HCT-116 colon; 2.14 µM in the experiment on MALME-3M melanoma; 1.97 µM with MDA-MB-231 breast; 0.674 µM in the experiment with MOLT-4 leukemia; 2.02 µM with NCI-H23 lung. Moreover, the GI50 with OVCAR-3 ovarian is 1.45 µM; in the experiment with SF-295 CNS it was 1.64 µM; in the experiment on SNB-75 CNS, 1.44 µM. Besides, the TGI in the experiment with EKVX NSCLC was determined as 5.43 µM; in the experiment with HCT-116 colon, 2.98 µM; in the experiment on MALME-3M melanoma, 6.44 µM; with MDA-MB-231 breast, 4.2 µM; in the experiment on MOLT-4 leukemia, 3.51 µM; with NCI-H23 lung, 5.32 µM. The TGI came out at 2.76 µM with OVCAR-3 ovarian, 3.34 µM in the experiment with SF-295 CNS and 3.24 µM in the experiment on SNB-75 CNS.

`c1csc(-c2cc(-c3cccs3)c(-c3cccs3)s2)c1`: the TGI in the experiment on EKVX NSCLC, in the experiment on HCT-116 colon, with MALME-3M melanoma, in the experiment with MDA-MB-231 breast, with MOLT-4 leukemia and in the experiment on NCI-H23 lung was greater than 100 µM throughout. The TGI in the experiment on OVCAR-3 ovarian, with SF-295 CNS and with SNB-75 CNS was greater than 100 µM in each case.

Take `CC(C)CCN=C(N)c1ccc(N2CCN(c3ccc(C(N)=NCCC(C)C)cc3)CC2)cc1`: the GI50 was 1 µM with EKVX NSCLC; 9.52 µM in the experiment on HCT-116 colon; 4.74 µM in the experiment with HL-60(TB) leukemia; 20.6 µM in the experiment on MDA-MB-231 breast; 14.6 µM with MOLT-4 leukemia; 3.75 µM with NCI-H23 lung. The GI50 in the experiment with OVCAR-3 ovarian was 11.3 µM; with SF-295 CNS, 6.68 µM. Moreover, the TGI in the experiment with EKVX NSCLC amounted to 10.4 µM; in the experiment with HCT-116 colon, 33.5 µM; in the experiment with HL-60(TB) leukemia, 26.1 µM; in the experiment on MDA-MB-231 breast, 52.7 µM; with MOLT-4 leukemia, 53.6 µM; in the experiment with NCI-H23 lung, 17.8 µM. Further, the TGI in the experiment with OVCAR-3 ovarian stood at 44.8 µM; in the experiment with SF-295 CNS, 38.5 µM.

Turning to `COc1cc(OC)c(C2CC=Cc3c(OC)cc(OC)c(OC)c32)cc1OC` (stereo not given), the TGI in the experiment with EKVX NSCLC, in the experiment with HCT-116 colon, in the experiment on HL-60(TB) leukemia, in the experiment with MALME-3M melanoma, with MOLT-4 leukemia and in the experiment with NCI-H23 lung was greater than 100 µM throughout. In addition, the TGI in the experiment with OVCAR-3 ovarian, with SF-295 CNS and with SNB-75 CNS was greater than 100 µM in each case.

Turning to `CCC1CCc2nc3sc(C(=O)Nc4cccc(F)c4)c(N)c3cc2C1` (stereo not given), the GI50 is 2.25 µM in the experiment with HCT-116 colon; 0.343 µM in the experiment on HL-60(TB) leukemia; greater than 100 µM in the experiment with MDA-MB-231 breast; 39.8 µM with MOLT-4 leukemia; greater than 100 µM with NCI-H23 lung; 0.757 µM in the experiment on OVCAR-3 ovarian. Moreover, the GI50 is 0.901 µM in the experiment with SF-295 CNS and 9.19 µM in the experiment on SNB-75 CNS. The TGI in the experiment on HCT-116 colon, with HL-60(TB) leukemia, with MDA-MB-231 breast, in the experiment with MOLT-4 leukemia, with NCI-H23 lung and in the experiment on OVCAR-3 ovarian was greater than 100 µM throughout. Further, the TGI with SF-295 CNS and in the experiment with SNB-75 CNS was greater than 100 µM in each case.

For the compound `COc1ccc(OC)c(/C=C(/C)[N+](=O)[O-])c1`, the GI50 with EKVX NSCLC was 2.76 µM; in the experiment with HCT-116 colon, 1.88 µM; with MALME-3M melanoma it was 1.81 µM; in the experiment on MDA-MB-231 breast it was 2.71 µM; with MOLT-4 leukemia, 3.32 µM; in the experiment on NCI-H23 lung, 1.83 µM. The GI50 in the experiment with OVCAR-3 ovarian was 1.81 µM; with SF-295 CNS, 11.2 µM; with SNB-75 CNS, 4.73 µM. Further, the TGI was 11.5 µM with EKVX NSCLC; 3.54 µM in the experiment with HCT-116 colon; 3.61 µM in the experiment on MALME-3M melanoma; 7.45 µM in the experiment with MDA-MB-231 breast; greater than 100 µM in the experiment on MOLT-4 leukemia; 4.52 µM in the experiment on NCI-H23 lung. Moreover, the TGI was 3.27 µM in the experiment on OVCAR-3 ovarian, 24.8 µM in the experiment on SF-295 CNS and 16 µM with SNB-75 CNS.

Regarding `NCCCNCCCCN(CCCN)/[N+]([O-])=N\O`, the TGI with EKVX NSCLC, in the experiment with HCT-116 colon, in the experiment with HL-60(TB) leukemia, in the experiment with MALME-3M melanoma, in the experiment on MOLT-4 leukemia and in the experiment on NCI-H23 lung was greater than 100 µM each time. In addition, the TGI in the experiment on OVCAR-3 ovarian, in the experiment with SF-295 CNS and with SNB-75 CNS was greater than 100 µM in each case.

Consider `COc1ccc(-c2nc3ccccn3c2/C=C/C(=O)c2cc(OC)c(OC)c(OC)c2)cc1`, for which the GI50 in the experiment with EKVX NSCLC was 7.42 µM; in the experiment on HCT-116 colon it was 2.26 µM; in the experiment on HL-60(TB) leukemia, 34 µM; in the experiment with MDA-MB-231 breast, 5.22 µM; with MOLT-4 leukemia, 32.9 µM; in the experiment with NCI-H23 lung it was 3.41 µM. The GI50 with OVCAR-3 ovarian was 2.88 µM; in the experiment on SF-295 CNS it was 15.2 µM; in the experiment on SNB-75 CNS, 5.49 µM. For the same compound, the TGI with EKVX NSCLC was greater than 100 µM; with HCT-116 colon, 11.1 µM; in the experiment on HL-60(TB) leukemia, greater than 100 µM; with MDA-MB-231 breast it was greater than 100 µM; in the experiment with MOLT-4 leukemia it was greater than 100 µM; in the experiment with NCI-H23 lung it was 94.1 µM. The TGI in the experiment on OVCAR-3 ovarian amounted to 9.67 µM; in the experiment on SF-295 CNS, 69.5 µM; with SNB-75 CNS, 54.5 µM.

Consider `COC(=O)CCCC(=O)O`, for which the TGI with EKVX NSCLC, in the experiment on HCT-116 colon, with MALME-3M melanoma, in the experiment on MDA-MB-231 breast, in the experiment on MOLT-4 leukemia and in the experiment on NCI-H23 lung was greater than 100 µM in each case. Besides, the TGI in the experiment with OVCAR-3 ovarian, with SF-295 CNS and in the experiment on SNB-75 CNS was greater than 100 µM throughout.
